{
  "source": "patent US12678507B2",
  "about": "“Protein tyrosine kinase 6 (PTK6) degradation / disruption compounds and methods of use” (Icahn School of Medicine at Mount Sinai, priority 2018, dated 2026)",
  "key": {"[1]": {"target": "T1, PTK6 (Homo sapiens, UniProt Q13882)", "T1 construct": "endogenous in cells; host or cells: MDA-MB231 cells (ATCC)", "T1 sequence (Q13882 whole entry)": "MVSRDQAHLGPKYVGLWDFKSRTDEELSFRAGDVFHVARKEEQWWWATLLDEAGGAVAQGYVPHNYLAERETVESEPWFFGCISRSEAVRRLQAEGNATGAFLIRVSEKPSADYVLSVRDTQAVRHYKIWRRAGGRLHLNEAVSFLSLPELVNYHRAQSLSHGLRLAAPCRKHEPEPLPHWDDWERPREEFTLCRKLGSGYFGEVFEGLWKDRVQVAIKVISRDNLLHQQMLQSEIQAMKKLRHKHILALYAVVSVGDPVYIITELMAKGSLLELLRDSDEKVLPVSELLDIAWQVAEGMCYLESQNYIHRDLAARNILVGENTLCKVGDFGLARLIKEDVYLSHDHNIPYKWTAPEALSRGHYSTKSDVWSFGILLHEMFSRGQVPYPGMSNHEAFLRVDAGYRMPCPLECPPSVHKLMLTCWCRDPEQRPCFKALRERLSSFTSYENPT", "test": "Western blot of PTK6 protein levels in MDA-MB231 cells", "format": "cell-based", "conditions": "MDA-231 (MDA-MB231) cells, 500 nM, 24 hours, Western blot (FIGS. 3-5)", "procedure": "FIGS. 2-5. Effects of exemplary compounds on reducing PTK6 protein levels in breast cancer cells. Triple negative MDA-MB231 cells were treated for 24 hours with 500 nM, 2 uM or 2.5 uM of test compound and lysed. Proteins were resolved by SDS/PAGE and immunoblotted with antibody to PTK6 (Santa Cruz, Cell Signaling) or GAPDH loading control (Cell Signaling).\nFIG. 13. PTK6 degraders suppress PTK6 expression. MDA-MB231 cells were treated with compounds (500 nM or 1 uM) for 24 hours in monolayer cultures. Cells were lysed and lysates were probed with anti-PTK6 antibody.\nMDA-MB231 cells were treated with DMSO or indicated compounds at 2.5 uM, 2 uM or 500 nM for 24 hours.\nMDA-MB231 cells were treated with compounds (500 nM or 1 uM) for 24 hours in monolayer cultures. Cells were lysed and lysates were probed with anti-PTK6 antibody.\n(§1) Cells were lysed in 1% NP-40 lysis buffer containing NaF, Na3VO4, Leupeptin, PMSF, aprotinin, and phosphatase inhibitor (PhosSTOP, Roche) as described previously (Irie et al., 2010). Cleared cell lysates were stored at −80° C. and were analyzed by western analysis as described previously (Irie et al., 2010)."}, "[2]": {"system": "MDA-MB231 cells", "test": "3D Matrigel culture of MDA-MB231 triple negative breast cancer cells (growth, invasive branching, viability)", "format": "cell-based", "conditions": "1 μM, 3 days, 3D cultures (FIG. 6)", "procedure": "FIG. 6a. PTK6 degraders, but not kinase activity inhibitor suppress viability in 3D cultures. MDA-MB231 triple negative breast cancer cells were seeded into 3D Matrigel cultures (4×10^3 cells/well) and treated with indicated PTK6 degraders, negative control compounds or PTK6 kinase activity inhibitor at 1 uM for 5 days with re-feeding of compound after 3 days in culture. Viability was assessed using 3D Cell Titer glo (Promega). FIG. 6b. Expression of PTK6 in cells treated with PTK6 degraders, negative control compounds or PTK6 kinase activity inhibitor was assessed after 24 hour treatment in monolayer cultures with 1 uM of compound. Cells were lysed and proteins were resolved and probed with anti-PTK6 antibody (Cell Signaling)\nFIG. 12a. […] Expression of PTK6 in cells treated with PTK6 degraders, negative control compounds or PTK6 kinase activity inhibitor was assessed after 24 hour treatment in monolayer cultures with 1 uM of compound. […] Viability was assessed using 3D Cell Titer glo (Promega). […]\nMDA-MB231 triple negative breast cancer cells were seeded into 3D Matrigel cultures (4×10^3 cells/well) and treated with indicated PTK6 degraders, negative control compounds or PTK6 kinase activity inhibitor at 1 uM for 6 days with re-feeding of compound after 3 days in culture (FIG. 12B). Viability was assessed using 3D Cell Titer glo (Promega). […]"}, "[3]": {"system": "CP70 cells", "test": "3D culture viability of platinum resistant ovarian cancer cells CP70", "format": "cell-based", "conditions": "2 uM, 6 days, 3D culture (FIG. 8)", "procedure": "FIG. 8. Treatment with PTK6 degraders, but not kinase activity inhibitor, suppress viability of chemotherapy-resistant ovarian cancer cells (CP70). Cells were seeded into 3D Matrigel cultures and treated with compounds (2 uM) for 6 days. Viability was assessed using 3D Cell Titre glo assay (Promega)\nPlatinum resistant ovarian cancer cells CP70 were treated with PTK6 degrader or kinase inhibitor P21d (2 uM) for 6 days in 3D culture. Viability after 6 days was assessed by 3D Cell Titer glo."}, "[4]": {"system": "MCF7 cells", "test": "3D Cell Titer Glo viability of MCF7 ER+ breast cancer cells", "format": "cell-based", "conditions": "0, 1, 2 and 5 μM, 4 days, 3D Cell Titer Glo (FIG. 7)", "procedure": "FIG. 7a. PTK6 degrader treatment suppresses growth of ER+ breast cancer cells. ER+ breast cancer cells (MCF-7) were treated with indicated concentrations of top candidate degraders, negative control compounds or PTK6 kinase activity inhibitor for 24 hours, lysed and proteins were resolved by SDS-PAGE. PTK6 expression was interrogated by Western analysis. FIG. 7b. MCF-7 cells were seeded into 3D Matrigel cultures and treated with indicated PTK6 degraders or PTK6 kinase inhibitor for 4 days. Viability was quantified using 3-D Cell Titer glo (Promega).\nMCF7 cells were treated with YX39-103, YX39-105, and compound 21d at 0, 1, 2 and 5 μM for 4 days using 3D Cell Titer Glo (Promega) assay conditions.\nMDA-MB231, MCF-7, OV2008 and Hey C2 cells (3,000 cells) were added to 8-well chamber slides (BD Biosciences) coated with 50 μl of growth factor-reduced Matrigel™ Matrix basement membrane (Corning). Treatment with degrader was begun later the same day. Media was replaced every 3 days. Cells were imaged using the Axiovert 25 inverted microscope (Carl Zeiss AB). CellTiter-Glo 3D Cell Viability Assay (Promega) was used to quantitate viability of cells grown in Matrigel™ in 96-well plates."}, "[5]": {"target": "T1, PTK6", "test": "PTK6 degradation after PTK6 kinase inhibitor P21d pretreatment (Western)", "format": "cell-based", "conditions": "MDA-MB231 cells, P21d 5 uM 2 hours, then degrader 24 hours (FIG. 10)", "procedure": "FIG. 10. PTK6 kinase activity inhibitor pre-treatment prevents PTK6 degrader-dependent suppression of PTK6 expression. MDA-MB231 cells in monolayer cultures were pre-treated with DMSO or PTK6 kinase activity inhibitor (5 uM), then treated for an additional 24 hours with PTK6 degrader, YX39-105. Cells were lysed and expression of PTK6 was assessed by Western analysis.\nMDA-MB231 cells pretreated with DMSO or PTK6 kinase activity inhibitor, P21d, (5 uM) for 2 hours were subsequently treated with PTK6 degrader YX39-105 for 24 hours. Expression of PTK6 was assessed by Western analysis.\nas §1"}, "[6]": {"target": "T1, PTK6", "test": "PTK6 degradation after MG132 proteasome inhibitor pretreatment (Western)", "format": "cell-based", "conditions": "MDA-MB231 cells, MG132 10 uM 2 hours, then degrader 4 hours (FIG. 9)", "procedure": "FIG. 9. PTK6 degrader suppresses PTK6 expression in a proteasome-dependent manner. MDA-MB231 cells (left) or OV2008 cells (right) were pre-treated with DMSO or MG-132 (10 uM) for two hours, then treated for an additional 4 hours with DMSO or PTK6 degrader at the indicated concentrations.\nMDA-MB231 cells were pre-treated with MG132 (10 uM) or DMSO for 2 hours, then treated for additional 4 hours with PTK6 degrader YX39-105 or DMSO. Cells were lysed and expression of PTK6 was assessed by Western analysis.\nas §1"}, "[7]": {"conditions": "compared with shRNA, all cell lines evaluated; cited from earlier work"}, "[8]": {"system": "TNBC cells", "conditions": "compared with PTK6 shRNA; cited from earlier work"}},
  "data": [
    {"smiles": "Cc1ncsc1-c1ccc(CNC(=O)[C@@H]2C[C@@H](O)CN2C(=O)[C@@H](NC(=O)CCCCCCNC(=O)CN2CCN(C(=O)c3ccc(Nc4nc(C5CC5)cn5c(-c6cn[nH]c6)cnc45)c(F)c3)CC2)C(C)(C)C)cc1", "note": "[YX39-103, (2S,4R)-1-((S)-2-(7-(2-(4-(4-((6-cyclopropyl-3-(1H-pyrazol-4-yl)imidazo[1,2-a]pyrazin-8-yl)amino)-3-fluorobenzoyl)piperazin-1-yl)acetamido)heptanamido)-3,3-dimethylbutanoyl)-4-hydroxy-N-(4-(4-methylthiazol-5-yl)benzyl)pyrrolidine-2-carboxamide]", "values": [
      {"measurement": "reducing PTK6 protein levels / suppress PTK6 expression", "setting": "[1]", "result": "effective in reducing PTK6 protein levels"},
      {"measurement": "growth and invasive branching in 3D cultures", "setting": "[2]", "result": "significantly suppressed growth and invasive branching"},
      {"measurement": "viability of chemotherapy-resistant ovarian cells (CP70)", "setting": "[3]", "result": "Suppressed Viability"},
      {"measurement": "viability of MCF7 cells", "setting": "[4]", "result": "significantly impaired viability of MCF7 cells in a dose-dependent manner"}
    ]},
    {"smiles": "Cc1ncsc1-c1ccc(CNC(=O)[C@@H]2C[C@@H](O)CN2C(=O)[C@@H](NC(=O)CCCCCCCCNC(=O)CN2CCN(C(=O)c3ccc(Nc4nc(C5CC5)cn5c(-c6cn[nH]c6)cnc45)c(F)c3)CC2)C(C)(C)C)cc1", "note": "[YX39-105, (2S,4R)-1-((S)-2-(9-(2-(4-(4-((6-cyclopropyl-3-(1H-pyrazol-4-yl)imidazo[1,2-a]pyrazin-8-yl)amino)-3-fluorobenzoyl)piperazin-1-yl)acetamido)nonanamido)-3,3-dimethylbutanoyl)-4-hydroxy-N-(4-(4-methylthiazol-5-yl)benzyl)pyrrolidine-2-carboxamide]", "values": [
      {"measurement": "reducing PTK6 protein levels / suppress PTK6 expression", "setting": "[1]", "result": "effective in reducing PTK6 protein levels"},
      {"measurement": "growth and invasive branching in 3D cultures", "setting": "[2]", "result": "significantly suppressed growth and invasive branching"},
      {"measurement": "viability of chemotherapy-resistant ovarian cells (CP70)", "setting": "[3]", "result": "Suppressed Viability"},
      {"measurement": "PTK6 degradation with PTK6 inhibitor pretreatment", "setting": "[5]", "result": "Prevents PTK6 from being Degraded"},
      {"measurement": "viability of MCF7 cells", "setting": "[4]", "result": "significantly impaired viability of MCF7 cells in a dose-dependent manner"},
      {"measurement": "PTK6 degradation with MG132 pretreatment", "setting": "[6]", "result": "Prevents PTK6 from being Degraded"}
    ]},
    {"smiles": "Cc1ncsc1-c1ccc(CNC(=O)[C@@H]2C[C@@H](O)CN2C(=O)[C@@H](NC(=O)COCCOCC(=O)N2CCN(C(=O)c3ccc(Nc4nc(C5CC5)cn5c(-c6cn[nH]c6)cnc45)c(F)c3)CC2)C(C)(C)C)cc1", "note": "[YX79-41, (2S,4R)-1-((S)-2-(2-(2-(2-(4-(4-((6-cyclopropyl-3-(1H-pyrazol-4-yl)imidazo[1,2-a]pyrazin-8-yl)amino)-3-fluorobenzoyl)piperazin-1-yl)-2-oxoethoxy)ethoxy)acetamido)-3,3-dimethylbutanoyl)-4-hydroxy-N-(4-(4-methylthiazol-5-yl)benzyl)pyrrolidine-2-carboxamide]", "values": [
      {"measurement": "reducing PTK6 protein levels / suppress PTK6 expression", "setting": "[1]", "result": "potently suppress PTK6 expression"}
    ]},
    {"smiles": "Cc1ncsc1-c1ccc(CNC(=O)[C@@H]2C[C@@H](O)CN2C(=O)[C@@H](NC(=O)COCCOCCOCC(=O)N2CCN(C(=O)c3ccc(Nc4nc(C5CC5)cn5c(-c6cn[nH]c6)cnc45)c(F)c3)CC2)C(C)(C)C)cc1", "note": "[YX79-42, (2S,4R)-1-((S)-2-(tert-butyl)-14-(4-(4-((6-cyclopropyl-3-(1H-pyrazol-4-yl)imidazo[1,2-a]pyrazin-8-yl)amino)-3-fluorobenzoyl)piperazin-1-yl)-4,14-dioxo-6,9,12-trioxa-3-azatetradecanoyl)-4-hydroxy-N-(4-(4-methylthiazol-5-yl)benzyl)pyrrolidine-2-carboxamide]", "values": [
      {"measurement": "reducing PTK6 protein levels / suppress PTK6 expression", "setting": "[1]", "result": "potently suppress PTK6 expression"}
    ]},
    {"smiles": "Cc1ncsc1-c1ccc(CNC(=O)[C@@H]2C[C@@H](O)CN2C(=O)[C@@H](NC(=O)CCCCCCC(=O)NCCN2CCN(C(=O)c3ccc(Nc4nc(C5CC5)cn5c(-c6cn[nH]c6)cnc45)c(F)c3)CC2)C(C)(C)C)cc1", "note": "[YX79-59, N^1-(2-(4-(4-((6-cyclopropyl-3-(1H-pyrazol-4-yl)imidazo[1,2-a]pyrazin-8-yl)amino)-3-fluorobenzoyl)piperazin-1-yl)ethyl)-N^8-((S)-1-((2S,4R)-4-hydroxy-2-((4-(4-methylthiazol-5-yl)benzyl)carbamoyl)pyrrolidin-1-yl)-3,3-dimethyl-1-oxobutan-2-yl)octanediamide]", "values": [
      {"measurement": "reducing PTK6 protein levels / suppress PTK6 expression", "setting": "[1]", "result": "potently suppress PTK6 expression"}
    ]},
    {"smiles": "Cc1ncsc1-c1ccc(CNC(=O)[C@@H]2C[C@@H](O)CN2C(=O)[C@@H](NC(=O)COCCOCC(=O)NCCN2CCN(C(=O)c3ccc(Nc4nc(C5CC5)cn5c(-c6cn[nH]c6)cnc45)c(F)c3)CC2)C(C)(C)C)cc1", "note": "[YX79-65, (2S,4R)-1-((S)-2-(tert-butyl)-14-(4-(4-((6-cyclopropyl-3-(1H-pyrazol-4-yl)imidazo[1,2-a]pyrazin-8-yl)amino)-3-fluorobenzoyl)piperazin-1-yl)-4,11-dioxo-6,9-dioxa-3,12-diazatetradecanoyl)-4-hydroxy-N-(4-(4-methylthiazol-5-yl)benzyl)pyrrolidine-2-carboxamide]", "values": [
      {"measurement": "reducing PTK6 protein levels / suppress PTK6 expression", "setting": "[1]", "result": "potently suppress PTK6 expression"}
    ]},
    {"smiles": "O=C(c1ccc(Nc2nc(C3CC3)cn3c(-c4cn[nH]c4)cnc23)c(F)c1)N1CCOCC1", "note": "[compound 21d]", "values": [
      {"measurement": "3D growth", "setting": "[7]", "result": "did not consistently phenocopy the effects of shRNA"},
      {"measurement": "EMT regulation of TNBC cells", "setting": "[8]", "result": "phenocopied the effects of PTK6 shRNA"}
    ]}
  ]
}
